In PMC4931907 (eLife, 2016):
pIC50: −log10 of the molar value. Read-outs that look alike come from different tables or passages of the source.

Columns and labels:
[1] = cited from earlier work
[2] = system: AE9a-driven AML cell line; test: Growth and apoptosis of AE9a cells (trypan blue, annexin V/7AAD); assay type: cell-based, mouse; settings: for Apoptosis, annexin V/7AAD double staining: 24 hr
Excerpt: (§1) Previously, we reported that the leukemogenicity of the AML1-ETO fusion protein, generated by a t(8;21) translocation in acute myelogenous leukemia, is regulated by p300-mediated acetylation of lysine 43 of the fusion protein ([Wang et al., 2011]).
(§2) Figure 4. […] (B) Kasumi-1 and AE9a cells treated or not with salicylate were counted by trypan-blue exclusion under light microscopy. […] The percentage of sub-G1 cells is shown. […] Cells were counted by trypan-blue exclusion under light microscopy. […] DOI: http://dx.doi.org/10.7554/eLife.11156.011
HEK293T cells (ATCC) were maintained in DMEM supplemented with 10% FCS. The viability of Kasumi-1 cells and AE9a mouse leukemia cells was assessed in triplicate by trypan blue exclusion. The Kasumi cell line was isolated and characterized by one of the coauthors (S. Nimer) ([Becker et al., 2008]). All cell lines were tested annually for mycoplasma contamination. Only negative mycoplasma cultures were used during the conduct of these experiments.
Apoptosis was analyzed with an Annexin V-APC/7AAD Apoptosis kit (Becton-Dickinson) according to manufacturer’s instructions. To assess the distribution of nuclear DNA content in the cell-cycle analysis, cells were collected, washed in PBS, fixed overnight in 75% ethanol at –20°C, treated with 1% RNase A for at least 15 min at 37°C, and stained with […] propidium iodide. To monitor CD34 expression, the cells were stained with an allophycocyanin-conjugated anti-CD34 antibody (Becton Dickinson). To monitor CD11b expression, the cells were stained with a phycoerythrin-conjugated anti-CD11b antibody (Beckman-Coulter). To monitor C-kit and Mac-1 expression, the cells were stained with allophycocyanin-conjugated anti-C-kit and phycoerythrin-conjugated anti-Mac-1 antibodies (Becton-Dickinson). Cells were sorted with a Becton-Dickinson FACSCalibur, and the data were analyzed with FlowJo software.

[3] = system: histone acetylation (H2BK12/K15) in HEK293T cells; test: Site-specific histone acetylation in HEK293T cells by Western blot; assay type: cell-based; settings: for Deacetylation of specific histone residues: Western blot; for pIC50: Homo sapiens, HEK-293T
Description: To determine whether salicylate induces histone deacetylation directly in cells, we treated HEK293T cells with various concentrations of salicylate.
Figure 2. Salicylate inhibits specific lysine acetylation of histone and nonhistone proteins independently of AMPK activation. […] HEK293T cells were treated with the indicated concentrations of sodium salicylate for 24 hr. Site-specific histone acetylation was detected by Western blot with specific antisera. Bands were quantified with Image J software. Acetylation was normalized to that of untreated cells and plotted. Representative results are shown in Supplementary Figure 1. Experiments are repeated and error bars indicate SEM. […] HEK293T cells were transfected with increasing amounts of expression vectors for p300 or F1504A or PCAF, treated with sodium salicylate for 24 hr, and analyzed by Western blotting analysis with an antiserum specific for acetyl histone H2BK12/K15. Bands were quantified with Image J software. Acetylation was normalized to that of untreated control. Average levels of relative acetylation are plotted and error bars indicate SEM. Representative results are shown in Supplementary Figure 2—figure supplement 2. (E) IC50 values generated from all curves in panel (B) and (D) were plotted against the amount of plasmid transfected (p300 or PCAF). (F), (G) HEK293 T cells were transfected with expression vectors for p300 and NF-κB p65 (F) or p53 (G), treated with salicylate for 24 hr, and analyzed by Western blot with specific antibodies against acetyl NF-κBK310 (F) or acetyl p53K382 and acetyl H2BK12/15 (G). Compound C (10 μM), a specific AMPK inhibitor, was added to salicylate-treated cells for 24 hr before Western blot (G). KR, p65 K310R mutant DOI: http://dx.doi.org/10.7554/eLife.11156.005 Figure 2—figure supplement 1. Salicylate induces histone deacetylation in HEK293T cells HEK293T cells were treated with sodium salicylate as indicated for 24 hr, immediately lysed in Laemmli buffer, and then subjected to western blot analysis with the indicated antibodies. Histones H2A, H2B, H3 and H4 were used as input loading controls. Experiments are repeated five times and representative data are shown. DOI: http://dx.doi.org/10.7554/eLife.11156.006 [drawing 2] Figure 2—figure supplement 2. Salicylate-induced deacetylation of histone H2B can be rescued by overexpression of p300, but not PCAF, in a dose-dependent manner. (A) Overexpression of p300 but not PCAF specifically leads to hyperacetylation of histone H2B. […] H2B acetylation was measured by western blot and the specified antibodies. (B) Overexpression of p300 but not PCAF rescued salicylate-induced H2B deacetylation in a dose-dependent manner. […] H2B acetylation was measured by Western Blot and the specified antibodies. […]

AML1-ETO fusion protein = test: AML1-ETO K24/K43 acetylation in Kasumi-1 cells (immunoprecipitation, Western blot); assay type: cell-based, human; settings: Kasumi-1, 24 hr; salicylate 4 or 8 mM, diflunisal 100 or 200 μM
Excerpt: as §1, §2
AML1-ETO protein in the lysate was immunoprecipitated with an anti-ETO antibody (Santa Cruz Biotechnology). Antibodies against AML1 and acetylated AML1-ETO K24/K43 (generated in the Nimer lab) were used for Western blotting.

SMILES	Plasma concentrations of diflunisal ([1]; after daily oral administration, ref Nuernberg et al., 1991, Mano et al., 2006) [µM]	Apoptosis, annexin V/7AAD double staining [2]	Deacetylation of specific histone residues ([3]; HEK293T cells, 24 hr)	pIC50 ([3]; 24 h, read-out: IC50 for H2BK12/K15 inhibition in cells)	K24 and K43 acetylation of AML1-ETO (AML1-ETO fusion protein)	Plasma concentrations of salicylate ([1]; humans after oral administration, ref Goldfine et al., 2010, 2013) [µM]	Salicylate plasma concentrations in patients ([1]; patients taking salicylic acid 3–4 g/day, no reference given) [mM]	Concentration inhibiting cell proliferation ([2]; trypan-blue exclusion counts) [mM]	pIC50 ([3]; HEK293T cells, 24 hr, read-out: IC50 for inhibition of H2B acetylation)
O=C(O)c1cc(-c2ccc(F)cc2F)ccc1O [diflunisal]	150 to 350	increased apoptosis in a dose-dependent manner	induced deacetylation of specific histone residues, H2AK5, K9, H2BK12/K15, H3K56	3.80	decreased in a dose-dependent manner	–	–	–	–
O=C(O)c1ccccc1O [salicylate, salicylic acid]	–	increased apoptosis	deacetylation of H2AK5/K9, H2BK12/K15, and H3K56 in a dose-dependent manner	–	decreased in a dose-dependent manner	1000 to 3000	1 to 3	≥ 1	2.32
